Biological target: T1, S1P1 receptor (human Endothelial Differentiation Gene 1 (EDG1)) (Homo sapiens, UniProt P21453)
T1 construct: TEV protease site; Gal4-VP16 transcription factor; expressed in transfected cells; host or cells: Tango GPCR-bla U2OS parental cell line (EDG1-bla/U2OS)
Experiment: S1P1 Tango Assay - 384 Well Format (EDG1-bla/U2OS cells)
Assay type: cell-based
Settings: agonist, beta-lactamase reporter
Description: Recombinant EDG1-bla/U2OS cells (contain the human Endothelial Differentiation Gene 1 (EDG1) linked to a TEV protease site and a Gal4-VP16 transcription factor stably integrated into the Tango GPCR-bla U2OS parental cell line) were harvested from growth medium and passaged into assay medium (Invitrogen Freestyle Expression Medium). The cells were starved for 24 hours at 37° C., 5% CO2, harvested and resuspended in assay medium at a density of ˜200,000 cells/ml.
All test compounds were dissolved in DMSO at a concentration of 10 mM and were prepared in 100% DMSO to provide 10 point dose response curves. Test compounds prepared by Bravo (Velocity 11) were added to wells in columns 2-11 and 13-22; DMSO was added to wells in columns 12 and 23 as unstimulated controls and assay medium was added to wells in columns 1 and 24 as cell-free controls. An S1P1 agonist was added to wells in row 2, columns 2-11 as stimulated controls and test compounds were added to wells in row 2, columns 13-22 and rows 3-15, columns 2-11/13-22 (row 1 and 16 were empty and not used). Compounds in solution were added to the assay plate (Greiner 781090) using an Echo (Labcyte) dose-response program (50 nl/well). The unstimulated and cell-free controls were loaded with 50 nl/well pure DMSO to ensure that the DMSO concentration was constant across the plate for all assays.
50 μl of the cell suspension was added to each well in columns 2-23 of the plate (˜10,000 cells per well). 50 μl of assay medium was added to each well in the cell-free controls (columns 1 and 24). The cells were incubated overnight at 37° C./5% CO2.
10 μl of 6× substrate mixture (LiveBLAzer™-FRET B/G substrate (CCF4-AM) Cat # K1096 from Invitrogen, Inc.) was added to each well using Bravo and the plates incubated at room temperature for 2 h in the dark. The plate was finally read on EnVision using one excitation channel (409 nm) and two emission channels (460 nm and 530 nm).
The blue/green emission ratio (460 nm/530 nm) was calculated for each well, by dividing the background-subtracted Blue emission values by the background-subtracted Green emission values. The dose response curve is based on sigmoidal dose-response model. All ratio data was normalized based upon the maximum emission ratio of positive control and minimum emission ratio of negative control (DMSO) on each plate. The intrinsic activity (IA) of each compound would be the normalized percentage of its maximum response after curve fitting.

T1 sequence (P21453 whole entry, the tested form may be a part): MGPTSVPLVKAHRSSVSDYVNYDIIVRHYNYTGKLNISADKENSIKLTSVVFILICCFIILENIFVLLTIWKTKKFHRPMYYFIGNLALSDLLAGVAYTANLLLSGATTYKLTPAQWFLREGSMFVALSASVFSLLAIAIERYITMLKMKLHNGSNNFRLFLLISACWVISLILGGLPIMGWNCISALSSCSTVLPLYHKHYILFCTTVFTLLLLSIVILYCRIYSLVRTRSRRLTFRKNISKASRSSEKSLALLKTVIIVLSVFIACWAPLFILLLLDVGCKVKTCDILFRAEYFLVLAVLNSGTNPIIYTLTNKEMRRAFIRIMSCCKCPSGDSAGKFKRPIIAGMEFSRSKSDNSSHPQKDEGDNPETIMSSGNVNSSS

Compound | EC50
CCc1cc(OCC(=O)O)ccc1-c1noc(-c2ccc(OC(C)C)c(Cl)c2)n1 [Example 28, {[4-(5-{3-chloro-4-[(1-methylethyl)oxy]phenyl}-1,2,4-oxadiazol-3-yl)-3-ethylphenyl]oxy}acetic acid] | ≤ 1 nM
CCc1cc(OCCCCC(=O)O)ccc1-c1noc(-c2ccc(OC(C)C)c(Cl)c2)n1 [Example 29, 5-{[4-(5-{3-chloro-4-[(1-methylethyl)oxy]phenyl}-1,2,4-oxadiazol-3-yl)-3-ethylphenyl]oxy}pentanoic acid] | ≤ 1 nM
CCc1cc(OCCCC(=O)O)ccc1-c1noc(-c2ccc(OC(C)C)c(Cl)c2)n1 [Example 30, 4-{[4-(5-{3-chloro-4-[(1-methylethyl)oxy]phenyl}-1,2,4-oxadiazol-3-yl)-3-ethylphenyl]oxy}butanoic acid] | ≤ 0.1 nM
CCc1cc(OCCCCC(=O)O)ccc1-c1noc(-c2ccc(OC(C)C)c(C#N)c2)n1 [Example 31, 5-{[4-(5-{3-cyano-4-[(1-methylethyl)oxy]phenyl}-1,2,4-oxadiazol-3-yl)-3-ethylphenyl]oxy}pentanoic acid] | ≤ 0.1 nM
CCc1cc(OCCCC(=O)O)ccc1-c1noc(-c2ccc(OC(C)C)c(C#N)c2)n1 [Example 32, 4-{[4-(5-{3-cyano-4-[(1-methylethyl)oxy]phenyl}-1,2,4-oxadiazol-3-yl)-3-ethylphenyl]oxy}butanoic acid] | ≤ 0.1 nM
CCc1cc(OCCNC)ccc1-c1noc(-c2ccc(OC(C)C)c(C#N)c2)n1 [Example 33, 5-[3-(2-ethyl-4-{[2-(methylamino)ethyl]oxy}phenyl)-1,2,4-oxadiazol-5-yl]-2-[(1-methylethyl)oxy]benzonitrile] | ≤ 10 nM
CCc1cc(OCCCCNC)ccc1-c1noc(-c2ccc(OC(C)C)c(Cl)c2)n1 [Example 34, (4-{[4-(5-{3-chloro-4-[(1-methylethyl)oxy]phenyl}-1,2,4-oxadiazol-3-yl)-3-ethylphenyl]oxy}butyl)methylamine] | ≤ 100 nM
CCc1cc(OCCCNC)ccc1-c1noc(-c2ccc(OC(C)C)c(Cl)c2)n1 [Example 35, (3-{[4-(5-{3-chloro-4-[(1-methylethyl)oxy]phenyl}-1,2,4-oxadiazol-3-yl)-3-ethylphenyl]oxy}propyl)methylamine] | ≤ 10 nM
CNCCOc1ccc(-c2noc(-c3ccc(OC(C)C)c(C#N)c3)n2)c(Cl)c1 [Example 36, 5-[3-(2-chloro-4-{[2-(methylamino)ethyl]oxy}phenyl)-1,2,4-oxadiazol-5-yl]-2-[(1-methylethyl)oxy]benzonitrile] | ≤ 1 nM
CNCCCOc1ccc(-c2noc(-c3ccc(OC(C)C)c(C#N)c3)n2)c(Cl)c1 [Example 37, 5-[3-(2-chloro-4-{[3-(methylamino)propyl]oxy}phenyl)-1,2,4-oxadiazol-5-yl]-2-[(1-methylethyl)oxy]benzonitrile] | ≤ 1 nM
CCc1cc(OCCCCNC)ccc1-c1noc(-c2ccc(OC(C)C)c(C#N)c2)n1 [Example 38, 5-[3-(2-ethyl-4-{[4-(methylamino)butyl]oxy}phenyl)-1,2,4-oxadiazol-5-yl]-2-[(1-methylethyl)oxy]benzonitrile] | ≤ 10 nM
CCc1cc(OCCCNC)ccc1-c1noc(-c2ccc(OC(C)C)c(C#N)c2)n1 [Example 39, 5-[3-(2-ethyl-4-{[3-(methylamino)propyl]oxy}phenyl)-1,2,4-oxadiazol-5-yl]-2-[(1-methylethyl)oxy]benzonitrile] | ≤ 1 nM
CNCCCOc1ccc(-c2noc(-c3ccc(OC(C)C)c(Cl)c3)n2)c(C)c1 [Example 40, (3-{[4-(5-{3-chloro-4-[(1-methylethyl)oxy]phenyl}-1,2,4-oxadiazol-3-yl)-3-methylphenyl]oxy}propyl)methylamine] | ≤ 10 nM
CCc1cc(OCCCC(=O)O)ccc1-c1nc(-c2ccc(OC(C)C)c(C#N)c2)ns1 [Example 41, 4-{[4-(3-{3-cyano-4-[(1-methylethyl)oxy]phenyl}-1,2,4-thiadiazol-5-yl)-3-ethylphenyl]oxy}butanoic acid] | ≤ 1 nM
CCc1cc(OCCCC(=O)O)ccc1-c1nsc(-c2ccc(OC(C)C)c(C#N)c2)n1 [Example 42, 4-{[4-(5-{3-cyano-4-[(1-methylethyl)oxy]phenyl}-1,2,4-thiadiazol-3-yl)-3-ethylphenyl]oxy}butanoic acid] | ≤ 10 nM
CCc1cc(OCCCC(=O)O)ccc1-c1cnc(-c2ccc(OC(C)C)c(C#N)c2)s1 [Example 43, 4-{[4-(2-{3-cyano-4-[(1-methylethyl)oxy]phenyl}-1,3-thiazol-5-yl)-3-ethylphenyl]oxy}butanoic acid] | ≤ 1 nM
CCc1cc(OCCCNC)ccc1-c1cnc(-c2ccc(OC(C)C)c(C#N)c2)s1 [Example 44, 5-[5-(2-ethyl-4-{[3-(methylamino)propyl]oxy}phenyl)-1,3-thiazol-2-yl]-2-[(1-methylethyl)oxy]benzonitrile] | ≤ 1000 nM
